Measured values taken from US12133856B2, “Multi-substituent psilocybin derivatives and methods of using” (Enveric Biosciences Canada Inc., priority 2021, dated 2024).
Like-named read-outs stand apart in the source and are kept apart here.

Columns and labels:
[1] = molecular target: T1, 5-HT1A receptor (Homo sapiens, UniProt P08908); assay: cAMP-Glo assay of 5-HT1A receptor modulation with 4 μM forskolin in CHO-K1/5-HT1A/Gα15 (+5-HT1A) versus CHO-K1/Gα15 (−5-HT1A) cells; format: cell-based; conditions: fixed 4 μM forskolin; cAMP relative (%) to ligand-free samples; decrease = 5-HT1A activity, no difference = no modulation
T1 construct: host or cells: CHO-K1 (co-expressing Gα15)
T1 sequence (P08908 1-422): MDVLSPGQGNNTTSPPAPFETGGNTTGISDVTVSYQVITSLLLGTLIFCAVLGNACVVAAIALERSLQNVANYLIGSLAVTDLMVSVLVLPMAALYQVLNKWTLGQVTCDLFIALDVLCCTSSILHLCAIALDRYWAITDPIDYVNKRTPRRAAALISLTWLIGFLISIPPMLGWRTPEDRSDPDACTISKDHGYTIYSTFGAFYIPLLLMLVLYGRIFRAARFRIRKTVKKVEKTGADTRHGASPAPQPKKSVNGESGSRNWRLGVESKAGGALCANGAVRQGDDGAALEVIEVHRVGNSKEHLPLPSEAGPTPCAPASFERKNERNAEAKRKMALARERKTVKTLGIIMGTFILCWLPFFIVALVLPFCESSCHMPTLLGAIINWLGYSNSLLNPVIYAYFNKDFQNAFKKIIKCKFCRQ
Excerpt: CHO-K1/Gα15 (GenScript, M00257) (−5-HT1A) and CHO-K1/5-HT1A/Gα15 (GenScript, M00330) (+5-HT1A) cells lines were used. Briefly, CHO-K1/Gα15 is a control cell line that constitutively expresses Gα15 which is a promiscuous Gq protein. This control cell line lacks any transgene encoding 5-HT1A receptors, but still responds to forskolin; thus, cAMP response to forskolin should be the same regardless of whether or not 5-HT1A agonists are present. Conversely, CHO-K1/5-HT1A/Gα15 cells stably express 5-HT1A receptor in the CHO-K1 host background. […] In +5-HT1A cells, Gα15 may be recruited in place of Gαi/o, which could theoretically dampen cAMP response (Rojas and Fiedler 2016, Front Cell Neurosci 10: 272). […] In contrast, tryptophan is not known to activate, or modulate in any way, 5-HT1A receptors, and was thus used as a negative control. Cells were maintained in complete growth media as recommended by supplier (GenScript) which is constituted as follows: Ham's F12 Nutrient mix (HAM's F12, GIBCO #11765-047) with 10% fetal bovine serum (FBS) (Thermo Scientific #12483020), 200 μg/ml zeocin (Thermo Scientific #R25005) and/or 100 μg/ml hygromycin (Thermo Scientific #10687010). The cells were cultured in a humidified incubator with 37° C. and 5% CO2. Cells maintenance was carried out as recommended by the cell supplier. Briefly, vials with cells were removed from the liquid nitrogen and thawed quickly in 37° C. water bath. Just before the cells were completely thawed the vial's outside was decontaminated by 70% ethanol spray. The cell suspension was then retrieved from the vial and added to warm (37° C.) complete growth media, and centrifuged at 1,000 rpm for 5 minutes. The supernatant was discarded, and the cell pellet was then resuspended in another 10 ml of complete growth media, and added to the 10 cm cell culture dish (Greiner Bio-One #664160). The media was changed every third day until the cells were about 90% confluent. The ˜90% confluent cells were then split 10:1 for maintenance or used for experiment.
As 5-HT1A activation inhibits cAMP formation, the ability of test molecules to modulate 5-HT1A response was measured via changes in the levels of cAMP produced due to application of 4 μM forskolin. […] Briefly, +5-HT1A cells were seeded on 1-6 columns and base −5-HT1A cells were seeded on columns 7-12 of the white walled clear bottom 96-well plate (Corning, #3903). Both cells were seeded at the density of 30,000 cells/well in 100 μl complete growth media and cultured 24 hrs in humidified incubator at 37° C. and 5% CO2. On the experiment day, the media of cells was replaced with serum/antibiotic free culture media. […] Forskolin induced cAMP formation whereas IBMX and RO 20-1724 inhibited the degradation of cAMP. PKA was added to the lysate, mixed, and subsequently the substrate of the PKA was added. PKA was activated by cAMP, and the amount of ATP consumed due to PKA phosphorylation directly corresponded to cAMP levels in the lysate.

[2] = molecular target: T2, 5-HT2A (Homo sapiens, UniProt P28223); assay: Radioligand competition binding assay with [3H]ketanserin (scintillation proximity assay) on membranes containing 5-HT2A; parameters: purchased PerkinElmer ES-313-M400UA; conditions: for competition binding curve result at 5-HT2A receptor (binding / no binding): controls, FIG. 15C
Experimental: Ki values were calculated from the competition displacement data using the competitive binding analysis from GraphPad PRISM software.

[3] = molecular target: T2, 5-HT2A; conditions: cited from earlier work

T2 sequence (P28223 whole entry): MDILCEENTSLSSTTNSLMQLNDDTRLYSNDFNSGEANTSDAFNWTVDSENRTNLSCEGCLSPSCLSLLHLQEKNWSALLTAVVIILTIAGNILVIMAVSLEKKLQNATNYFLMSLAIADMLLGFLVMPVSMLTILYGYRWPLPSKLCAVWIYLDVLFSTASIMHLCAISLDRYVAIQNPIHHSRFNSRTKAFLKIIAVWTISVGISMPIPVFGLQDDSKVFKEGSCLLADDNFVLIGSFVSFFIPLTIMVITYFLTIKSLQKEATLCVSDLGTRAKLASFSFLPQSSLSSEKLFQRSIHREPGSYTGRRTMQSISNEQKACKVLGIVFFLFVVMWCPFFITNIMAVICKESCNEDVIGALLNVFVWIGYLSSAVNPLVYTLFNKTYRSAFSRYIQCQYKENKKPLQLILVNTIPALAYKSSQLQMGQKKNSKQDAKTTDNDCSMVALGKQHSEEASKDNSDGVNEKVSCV

CC(=O)NCCc1c[nH]c2cc(NC(C)=O)cc(F)c12 [(X)]
% cAMP in +5HT1A compared to −5HT1A cultures as dosages increase [1]: no significant difference
Ki value at 5-HT2A compared with that of psilocin (in words) ([2]; [3H]ketanserin competition, FIG. 16B, indicates comparatively 'loose' binding): relatively high

CNC(C)Cc1ccc2c(c1)OCO2 (centres unmarked) [MDMA]
Ki values for 5-HT2A (in words) [3]: micromolar range

CC(=O)NCCc1c[nH]c2cc(F)cc(N)c12 [(IX)]
% cAMP in +5HT1A compared to −5HT1A cultures as dosages increase [1]: no significant difference
specific binding in competition with [3H]ketanserin for 5-HT2A sites (competition not complete) ([2]; fixed 1 nM [3H]ketanserin, test compound 3 nM to 1 mM, FIG. 15D): ~50%

COc1cc(CCN)cc(OC)c1OC [mescaline]
Ki values for 5-HT2A (in words) ([3]; literature values signifying mild or 'loose' binding profiles): micromolar range

NCCc1c[nH]c2ccc(O)cc12 [serotonin]
% cAMP in +5HT1A compared to −5HT1A cultures as dosages increase [1]: decreased % cAMP

CN(C)CCc1c[nH]c2cccc(O)c12 [psilocin]
% cAMP in +5HT1A compared to −5HT1A cultures as dosages increase [1]: decreased % cAMP
competition binding curve result at 5-HT2A receptor (binding / no binding) ([2]; fixed 1 nM [3H]ketanserin): binding

N[C@@H](Cc1c[nH]c2ccccc12)C(=O)O [tryptophan]
% cAMP in +5HT1A compared to −5HT1A cultures as dosages increase [1]: no significant difference
competition binding curve result at 5-HT2A receptor (binding / no binding) ([2]; fixed 1 nM [3H]ketanserin): no binding
